In patent publication US8729055B2, “Ursolic acid derivative and pharmaceutical composition thereof” (Kaohsiung Medical University, priority 2010, dated 2014):

What was measured:
[1] = system: rat peritoneal mast cells stimulated with compound 48/80; assay: Experiment C: release of β-glucuronidase from rat peritoneal mast cells stimulated with compound 48/80; assay type: cell-based
Description: (§1) This example illustrates the anti-inflammatory activities of compounds 5, 7-11, 20 and 21. The anti-inflammatory activities of compounds 5, 7-11, 20 and 21 are studied in vitro for their inhibitory effects on chemical mediators released from neutrophils, mast cells or macrophages of rat.
(§2) Please refer to Table 2, which illustrates the inhibitory effects of compounds 5, 7-11, 20 and 21 on the accumulation of NO2^− (Experiment A), superoxide anion formation (n mol/10^6 cells/30 min) from rat neutrophils stimulated with PMA (Experiment B), and the release of β-glucuronidase from rat peritoneal mast cells stimulated with compound 48/80 (Experiment C). In Table 2, when 50% inhibition could not be reached at the highest concentration, the percentage of inhibition at 30 μM is given.
In the Experiment C, Heparinized Tyrode's solution is injected into the peritoneal cavity of exsanguinated rat (Sprague-Dawley, 250-300 g). After abdominal massage, cells in the peritoneal fluid are harvested and then separated in 38% bovine serum albumin (BSA) in glucose-free Tyrode's solution. […] Fifteen min after the addition of compound 48/80 ([…]), β-glucuronidase (phenolphthalein-β-glucuronide as substrate, 550 nm) in the supernatant is determined. The total content of β-glucuronidase is measured after treatment of the cell suspension with Triton X-100, and the percentage release is calculated. […]

[2] = system: NTUB1 cells (human bladder cancer cell line); assay: MTT cytotoxicity assay against NTUB1 cells; assay type: cell-based
Description: In the present embodiment, cell culture and MTT assay is used for cell viability/proliferation. NTUB1, a human bladder cancer cell line, is established from a high-grade bladder cancer. […] The cells are cultured at 37° C. in a humidified atmosphere containing 5% CO2. […] Briefly, the cells are plated at a density of 1800 cells/well in 96-well plates and incubated at 37° C. overnight before drug exposure. Cells are then cultured in the presence of graded concentrations of the test compound with or without various concentrations of cisplatin (Pharmacia & Upjohn, Milan, Italy) at 37° C. for 72 h. At the end of the culture period, 50 μL of MTT (2 mg/mL in PBS) is added to each well and allowed to react for 3 h. Following centrifugation of plates at 1000 g for 10 min, media are removed and 150 μL DMSO are added to each well. The proportions of surviving cells are determined by absorbance spectrometry at 540 nm using […]) microplate reader. The cell viability is expressed as a percentage to the viable cells of control culture condition. The IC50s of each group are calculated by the […] analysis and presented as mean±standard deviation (SD). […] In Table 1, data are presented as mean±SD (n=5). […] The control cells are treated with culture medium containing 0.1% DMSO. Cisplatin is used as a positive control.

accumulation of NO2− = assay: Experiment A: accumulation of NO2− (Griess reaction); assay type: cell-based, rat; conditions: inhibition of accumulation of NO2−
Description: as §1, §2
In the Experiment A, Nitric oxide (NO) in the cell medium is determined by the Griess reaction, and N-(3-aminomethyl)benzylamide (1400 W) is used as a positive control.

[3] = system: microtubule assembly in NTUB1 cells; assay: Microtubule assembly by indirect immunofluorescence staining in NTUB1 cells; assay type: cell-based, human; conditions: 10 nM taxol, FIG. 5(B)
Description: All inhibition of tubulin polymerization has been implicated in G2/M phase cell cycle arrest in various cancer cell lines. Accordingly, whether treatment of cells with 20 μM compound 23 for 48 h affects in vivo microtubular architecture is investigated in the present example. Microtubule assembly is analyzed by indirect immunofluorescence staining using an anti-tubulin antibody (Santa Cruz Biotechnology, Santa Cruz, Calif., USA).
NTUB1 cells plated on coverslips are treated with no compound as control, 10 nM taxol, 50 μM compound 23 for 24 h. After treatment, cells are fixed with 2% formaldehyde/PBS for 20 min, washed with PBS, and cold methanol (−20° C.) for 3 min. After washing with PBS, cells are added anti-α-tubulin monoclonal antibody (Sigma, Co) in PBS and incubated for 3 h at room temperature. Then cells are washed with PBS and reincubated with Rodamine-conjugated secondary antibody (Sigma, Co) in dark room for 1 h at room temperature. After being washed with PBS, coverslips are mounted with 80% glycerol in PBS and examined with Axioskop 2 plus fluorescence microscope.
Please refer to FIGS. 5(A) to 5(C), which are diagrams showing the effects of taxol and compound 23 on microtubule assembly, wherein the cellular microtubules are observed by Axioskop 2 plus fluorescence microscope.

CCN(CC)CCCC(C)Nc1c2ccc(Cl)cc2nc2ccc(OC)cc12 (stereo not shown) [mepacrine, reference compound]
IC50 ([1]; Mast cell, rat peritoneal mast cells, compound 48/80): 12.4 ± 1.6 µM

C=C(C)[C@@H]1CC[C@]2(C)[C@H](CC=C3[C@@H]4[C@@H](C)[C@H](C)CC[C@]4(C(=O)O)CC[C@]32C)[C@@]1(C)CCC(=O)OC [Compound 21, Methyl 3,4-seco-ursan-4(23), 12-dien-28-oic 3-oat]
percentage of inhibition at 30 μM, C β-glucuronidase ([1]; 30 μM, given when 50% inhibition not reached): 29.3 ± 2.1% | IC50 ([2]; NTUB1 cells, MTT, 72 h, mean±SD (n=5)): > 30 µM | % of viability at the highest concentration ([2]; NTUB1 cells, given when 50% inhibition not reached at the highest concentration (30 μM)): 62.77% | cytotoxic activity against NTUB1 cells, in words ([2]; comparison with the parent compound, from Table 1): weakens cytotoxic activities | IC50 (accumulation of NO2−): 15.6 ± 2.5 µM

CC(=O)O[C@H]1C(=O)[C@@]2(C)[C@H]([C@H](OC(=O)c3ccccc3)[C@]3(O)C[C@H](OC(=O)[C@H](O)[C@@H](NC(=O)c4ccccc4)c4ccccc4)C(C)=C1C3(C)C)[C@]1(OC(C)=O)CO[C@@H]1C[C@@H]2O [taxol]
effect on microtubule assembly [3]: distinctive microtubule bundle
